Test results reported in patent US10813926B2, “Morphinan compounds” (Concert Pharmaceuticals, Inc., priority 2008, dated 2020).
Structures can show the parent of a compound that is named as a salt.

How the values were obtained:
Human CYP2D6 SUPERSOMES = biological target: T1, Human CYP2D6 SUPERSOMES (Homo sapiens, UniProt P10635); assay: Metabolic stability in CYP2D6 SUPERSOMES; type: in vitro ADME; details: 50 pmol/mL CYP2D6 SUPERSOMES, 1 μM test compound, 2 mM NADPH, 37° C., 0-30 minutes, triplicate
T1 construct: purchased GenTest (Woburn, Mass., USA)
T1 sequence (P10635 whole entry): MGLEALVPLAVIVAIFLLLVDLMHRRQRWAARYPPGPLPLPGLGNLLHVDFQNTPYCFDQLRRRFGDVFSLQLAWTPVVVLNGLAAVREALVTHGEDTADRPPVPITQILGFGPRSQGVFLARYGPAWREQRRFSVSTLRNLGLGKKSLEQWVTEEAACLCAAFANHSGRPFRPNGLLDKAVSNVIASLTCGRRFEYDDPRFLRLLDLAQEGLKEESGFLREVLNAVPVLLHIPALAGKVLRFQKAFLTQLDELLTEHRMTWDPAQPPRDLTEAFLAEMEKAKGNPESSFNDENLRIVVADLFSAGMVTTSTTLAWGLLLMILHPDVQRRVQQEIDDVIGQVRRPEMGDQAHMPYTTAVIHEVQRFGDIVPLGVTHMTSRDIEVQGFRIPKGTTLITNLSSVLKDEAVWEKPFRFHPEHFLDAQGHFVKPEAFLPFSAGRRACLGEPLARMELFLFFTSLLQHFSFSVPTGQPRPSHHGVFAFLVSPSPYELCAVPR
Protocol: (§1) Human CYP2D6 SUPERSOMES™ were purchased from GenTest (Woburn, Mass., USA). 7.5 mM stock solutions of test compounds (Compounds 100, 102, 104, 106, dextromethorphan, a deuterated analog of dextromethorphan wherein each methyl group was replaced with CD3 (“d6-dextromethorphan”, chemical name (+)-3-d3-methoxy-17-d3-methyl-(9α,13α,14α)-morphinan, also referred to as Compound 101 in U.S. Ser. No. 12/112,936, and as “Test Compound” in FIG. 1 and Table 2 below), the ethyl ether analog of dextromethorphan (“dextroethorphan”) or the isopropyl ether analog of dextromethorphan (“dextroisoproporphan”)) were prepared in DMSO. The 7.5 mM stock solutions were diluted to 50 μM in acetonitrile (ACN). The 1000 pmol/mL CYP2D6 supersomes were diluted to 62.5 pmol/mL in 0.1 M potassium phosphate buffer, pH 7.4, containing 3 mM MgCl2. The diluted SUPERSOMES™ were added to wells of a 96-well deep-well polypropylene plate in triplicate. 10 μL of the 50 μM test compound was added to the supersomes and the mixture was pre-warmed for 10 minutes. Reactions were initiated by addition of pre-warmed NADPH solution. The final reaction volume was 0.5 mL and contained 50 pmol/mL CYP2D6 SUPERSOMES™, 1 μM test compound, and 2 mM NADPH in 0.1 M potassium phosphate buffer, pH 7.4, and 3 mM MgCl2. The reaction mixtures were incubated at 37° C. and 50 μL aliquots were removed at 0, 5, 10, 20, and 30 minutes and added to shallow-well 96-well plates which contained 50 μL of ice-cold ACN with internal standard to stop the reactions. The plates were stored at 4° C. for 20 minutes after which 100 μL of water was added to the wells of the plate before centrifugation to pellet precipitated proteins. Supernatants were transferred to another 96-well plate and analyzed for amounts of parent remaining by LC-MS/MS using an Applied Bio-systems API 4000 mass spectrometer.
(§2) The in vitro half-life (t1/2) for each of the test compounds was calculated from the slopes of the linear regression of % parent remaining (ln) vs incubation time relationship: in vitro t1/2=0.693/k, where k=−[slope of linear regression of % parent remaining(ln) vs incubation time]. Data analysis was performed using Microsoft Excel Software.

[1] = Metabolic stability using human liver microsomes; type: in vitro ADME; details: for t1/2 ± SD, calculated half-life in human liver microsomes / half-life at 1 μM: 1.0 mg/mL human liver microsomes, 1 μM test compound, 2 mM NADPH, 37° C., triplicate; for half-life at 1 μM: pH 7.4, read-out: t1/2 ± SD, calculated half-life in human liver microsomes
Protocol: Human liver microsomes (20 mg/mL) were obtained from Xenotech, LLC (Lenexa, Kans.). β-nicotinamide adenine dinucleotide phosphate, reduced form (NADPH), magnesium chloride (MgCl2), and dimethyl sulfoxide (DMSO) were purchased from Sigma-Aldrich.
7.5 mM stock solutions of test compounds were prepared in DMSO. The 7.5 mM stock solutions were diluted to 50 μM in acetonitrile (ACN). The 20 mg/mL human liver microsomes were diluted to 1.25 mg/mL (1 mg/mL final) in 0.1 M potassium phosphate buffer, pH 7.4, containing 3 mM MgCl2. The diluted microsomes (375 μL) were added to wells of a 96-well polypropylene plate in triplicate. 10 μL of the 50 μM test compound was added to the microsomes and the mixture was pre-warmed for 10 minutes. Reactions were initiated by addition of 125 μL of pre-warmed NADPH solution. The final reaction volume was 0.5 mL and contained 1.0 mg/mL human liver microsomes, 1 μM test compound, and 2 mM NADPH in 0.1 M potassium phosphate buffer, pH 7.4, and 3 mM MgCl2. The reaction mixtures were incubated at 37° C., and 50 μL aliquots were removed at 0, 5, 10, 20, and 30 minutes and added to shallow 96-well plates which contained 50 μL of ice-cold ACN with internal standard to stop the reactions. The plates were stored at 4° C. for 20 minutes after which 100 μL of water was added to the wells of the plate before centrifugation to pellet precipitated proteins. Supernatants were transferred to another 96-well plate and analyzed for amounts of parent remaining by LC-MS/MS using an Applied Bio-systems API 4000 mass spectrometer.
7-ethoxy coumarin was used as a positive control.
The in vitro t1/2s for test compounds were calculated from the slopes of the linear regression of % parent remaining (ln) vs incubation time relationship:
in vitro t1/2=0.693/k, where k=−[slope of linear regression of % parent remaining(ln) vs incubation time]
Data Analysis was Performed Using Microsoft Excel Software.

CYP2D6 = biological target: T2, CYP2D6 (Homo sapiens, UniProt P10635); assay: Metabolic stability in CYP2D6 SUPERSOMES; type: in vitro ADME; details: human, recombinant human CYP2D6 SUPERSOMES, pH 7.4; 50 pmol/mL CYP2D6 SUPERSOMES, 1 μM test compound, 2 mM NADPH, 37° C., 0-30 minutes, triplicate; read-out: t1/2 ± SD, calculated half-life in SUPERSOMES
T2 construct: purchased GenTest (Woburn, Mass., USA)
T2 sequence (P10635 whole entry): as above
Protocol: as §1, §2

[2] = healthy human males; cited from earlier work
[3] = Table 3, vs dextroethorphan or dextroisoproporphan

SMILES: [2H]C([2H])([2H])N1CC[C@@]23CCCC[C@@H]2[C@@H]1Cc1ccc(OC([2H])([2H])C([2H])([2H])[2H])cc13 [Compound 100, (+)-3-(Ethoxy-d5)-17-(methyl-d3)-(9α,13α,14α)-morphinan hydrochloride]
- t1/2 ± SD, calculated half-life in SUPERSOMES (Human CYP2D6 SUPERSOMES): 51.3 ± 3.7 min
- t1/2 ± SD, calculated half-life in human liver microsomes ([1]; Table 3): 59.2 ± 1.7 min
- Change over non-deuterated compound (half-life) [1, 3]: 109%

SMILES: [2H]C([2H])([2H])N1CC[C@@]23CCCC[C@@H]2[C@@H]1Cc1ccc(OC([2H])(C([2H])([2H])[2H])C([2H])([2H])[2H])cc13 [Compound 102, (+)-3-(Isopropoxy-d7)-17-(methyl-d3)-(9α,13α,14α)-morphinan]
- half-life at 1 μM (CYP2D6): 39 ± 1.9 min
- Change over non-deuterated compound (half-life) [1, 3]: 69%
- half-life at 1 μM ([1]; Table 3): 61 ± 0.4 min

SMILES: [2H]C([2H])([2H])C([2H])([2H])Oc1ccc2c(c1)[C@]13CCCC[C@@H]1[C@H](C2)N(C)CC3 [Compound 104, (+)-3-(Ethoxy-d5)-17-methyl-(9α,13α,14α)-morphinan hydrochloride]
- t1/2 ± SD, calculated half-life in SUPERSOMES (Human CYP2D6 SUPERSOMES): 49.1 ± 4.1 min
- t1/2 ± SD, calculated half-life in human liver microsomes ([1]; Table 3): 59.1 ± 2.2 min
- Change over non-deuterated compound (half-life) [1, 3]: 109%

SMILES: [2H]C([2H])([2H])C([2H])(Oc1ccc2c(c1)[C@]13CCCC[C@@H]1[C@H](C2)N(C)CC3)C([2H])([2H])[2H] [Compound 106, (+)-3-(Isopropoxy-d7)-17-methyl-(9α,13α,14α)-morphinan]
- half-life at 1 μM (CYP2D6): 36 ± 2.8 min
- Change over non-deuterated compound (half-life) [1, 3]: 91%
- half-life at 1 μM ([1]; Table 3): 68.8 ± 0.9 min

SMILES: [2H]C([2H])([2H])c1ccc2c(c1)[C@]13CCCC[C@@H]1[C@H](C2)N(C)CC3 [Compound 108, (+)-3-(Methyl-d3)-17-methyl-(9α,13α,14α)-morphinan]
- Change over non-deuterated compound (half-life) ([1]; Table 4, vs dimemorfan): 21%

SMILES: [2H]C([2H])([2H])c1ccc2c(c1)[C@]13CCCC[C@@H]1[C@H](C2)N(C([2H])([2H])[2H])CC3 [Compound 110, (+)-3-(Methyl-d3)-17-(methyl-d3)-(9α,13α,14α)-morphinan]
- Change over non-deuterated compound (half-life) ([1]; Table 4, vs dimemorfan): 37%

SMILES: CCOc1ccc2c(c1)[C@@]13CCCC[C@H]1[C@@H](C2)N(C)CC3 [Dextroethorphan, (+)-3-ethoxy-17-methylmorphinan, reference compound]
- t1/2 ± SD, calculated half-life in SUPERSOMES (Human CYP2D6 SUPERSOMES): 10.3 ± 2.1 min
- t1/2 ± SD, calculated half-life in human liver microsomes ([1]; Table 3): 28.3 ± 0.6 min

SMILES: CC(C)Oc1ccc2c(c1)[C@@]13CCCC[C@H]1[C@@H](C2)N(C)CC3 [Dextroisoproporphan, (+)-3-(2-propoxy)-17-methyl-morphinan, reference compound]
- half-life at 1 μM (CYP2D6): 21.7 ± 1.6 min
- half-life at 1 μM ([1]; Table 3): 36.1 ± 1.6 min

SMILES: COc1ccc2c(c1)[C@]13CCCC[C@@H]1[C@H](C2)N(C)CC3 [Dextromethorphan, (+)-3-methoxy-17-methyl-(9α,13α,14α)-morphinan, reference compound]
- t1/2 ± SD, calculated half-life in SUPERSOMES (Human CYP2D6 SUPERSOMES): 1.7 ± 0.3 min

SMILES: Cc1ccc2c(c1)[C@]13CCCC[C@@H]1[C@H](C2)N(C)CC3 [Dimemorfan, (+)-(9α,13α,14α)-3,17-dimethylmorphinan]
- fraction of a dose metabolized [2]: Greater than 98%

SMILES: [2H]C([2H])([2H])Oc1ccc2c(c1)[C@]13CCCC[C@@H]1[C@H](C2)N(C([2H])([2H])[2H])CC3 [Test Compound, (+)-3-d3-methoxy-17-d3-methyl-(9α,13α,14α)-morphinan, reference compound]
- t1/2 ± SD, calculated half-life in SUPERSOMES (Human CYP2D6 SUPERSOMES): 5.6 ± 1.5 min
